From patent US8815865B2, “Substituted 4-hydroxypyrimidine-5-carboxamides” (Merck Sharp & Dohme Corp., priority 2009, dated 2014)

Legend:
[1] = molecular target: T1, PHD2 (Homo sapiens, UniProt Q9GZT9); assay: PHD2 / HIF-1α peptide time resolved fluorescence inhibition assay; type: biochemical
T1 construct: FLAG-tagged full length PHD2 expressed in and purified from baculovirus-infected Sf9 cells; FLAG; made in house; host or cells: baculovirus-infected Sf9 cells
Description: To each well of a 96-well plate was added 1 μL of test compound in DMSO and 20 μl of assay buffer (50 mM Tris pH 7.4/0.01% Tween-20/0.1 mg/ml bovine serum albumin/10 μM ferrous sulfate/1 mM sodium ascorbate/20 μg/ml catalase) containing 0.15 μg/ml FLAG-tagged full length PHD2 expressed in and purified from baculovirus-infected Sf9 cells. After a 30 min preincubation at room temperature, the enzymatic reactions were initiated by the addition of 4 μL of substrates (final concentrations of 0.2 μM 2-oxoglutarate and 0.5 μM HIF-1α peptide biotinyl-DLDLEMLAPYIPMDDDFQL). After 2 hr at room temperature, the reactions were terminated and signals were developed by the addition of a 25 μL quench/detection mix to a final concentration of 1 mM ortho-phenanthroline, 0.1 mM EDTA, 0.5 nM anti-(His)6 LANCE reagent (Perkin-Elmer Life Sciences), 100 nM AF647-labeled streptavidin (Invitrogen), and 2 μg/ml (His)6-VHL complex (S. Tan (2001) Protein Expr. Purif. 21, 224-234). The ratio of time resolved fluorescence signals at 665 and 620 nm was determined, and percent inhibition was calculated relative to an uninhibited control sample run in parallel.

[2] = Pharmacokinetics after intravenous dosing in dogs (plasma concentrations by LC-MS/MS); type: in vivo, dogs (beagles); conditions: dog (beagle), 0.5 mg/kg intravenously
Description: The pharmacokinetics of Example 1 (E-1) was evaluated, and compared to that of Example 163 and Example 190 both disclosed in International PCT Application, No. PCT/US09/036,501, filed Mar. 9, 2009. Compounds were formulated in a 1:1 solution (by volume) of PEG200: water and dosed at 0.5 mg/kg of body weight. The formulation was dosed intravenously in 2 dogs (beagles), and blood was drawn at the following time points (hours) 0.08, 0.25, 0.5, 1, 2, 4, 6, 8, 24. The plasma concentrations shown in the table below were determined by protein precipitation followed by liquid chromatography—tandem mass spectrometry analysis.

T1 sequence (Q9GZT9 whole entry): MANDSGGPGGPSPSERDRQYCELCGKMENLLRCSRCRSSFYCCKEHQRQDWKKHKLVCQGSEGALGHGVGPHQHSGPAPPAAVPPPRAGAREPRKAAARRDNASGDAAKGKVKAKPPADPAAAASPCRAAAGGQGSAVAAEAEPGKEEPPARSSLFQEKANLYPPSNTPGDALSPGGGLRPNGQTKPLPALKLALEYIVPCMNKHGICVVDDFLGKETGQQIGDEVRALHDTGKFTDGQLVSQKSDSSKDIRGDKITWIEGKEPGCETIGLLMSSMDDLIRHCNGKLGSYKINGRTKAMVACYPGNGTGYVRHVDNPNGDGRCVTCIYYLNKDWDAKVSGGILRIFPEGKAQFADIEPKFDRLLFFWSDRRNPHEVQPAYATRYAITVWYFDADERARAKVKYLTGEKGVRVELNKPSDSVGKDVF

IC50, inhibition of the interaction between PHD2 and a HIF peptide ([1]; range printed in mixed units (nanomolar to micromolar)): 0.1 to 10000 nM | IC50 ([1]; read-out: PHD2 binding activity expressed as IC50): ≤ 10 nM | MRT [2]: 7.93 h | clearance [2]: 1.35 mL/min/kg | concentration at 0.08 h ([2]; PEG200:water 1:1, time 0.08 hours): 2230 nM | half-life ([2]; read-out: T ½ (converted)): 6.07 h | concentration at 0.25 h ([2]; time 0.25 hours): 2060 nM | concentration at 0.5 h ([2]; time 0.50 hours): 1960 nM | concentration at 1 h ([2]; time 1.00 hours): 1660 nM | concentration at 2 h ([2]; time 2.00 hours): 1390 nM | concentration at 4 h ([2]; time 4.00 hours): 1320 nM | concentration at 6 h ([2]; time 6.00 hours): 917 nM | concentration at 8 h ([2]; time 8.00 hours): 504 nM | concentration at 24 h ([2]; time 24.00 hours): 100 nM
SMILES: COc1ccc(C(NC(=O)c2cnc(-c3cccnn3)nc2O)C2CCOCC2)cn1 (single isomer, unassigned) [Example 1, (R)- or (S)-4-Hydroxy-N-[(6-methoxypyridin-3-yl)(tetrahydro-2H-pyran-4-yl)methyl]-2-pyridazin-3-ylpyrimidine-5-carboxamide]
